# From the supplement of paper PMC11061612
# How the values were obtained:
# Assay in all cases: combination Emax (second highest fraction inhibited in the dose matrix, 72 h); higher = more inhibition; extreme values may be limits of the assay
# [1] = tested on: SLVL (B-Cell Non-Hodgkin's Lymphoma)
# In short: (§1)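 Bliss excess equals the observed combination effect minus the expected value EA + EB − EA·EB, where EA and EB are the effects of each agent alone. Combination Emax is the second-highest inhibition within the matrix. Inhibition was scaled from CellTiter-Glo 2.0 luminescence, with 0 set by vehicle wells and 1 by blank wells, after 72 hours of two-drug dosing of cells plated in 1536-well plates.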
# HCC38 (Breast Carcinoma) = tested on: HCC38 (Breast Carcinoma)
# In short: as §1
# D-392MG (Glioblastoma) = tested on: D-392MG (Glioblastoma)
# In short: as §1
# [2] = tested on: MEG-01 (Chronic Myelogenous Leukemia)
# In short: as §1
# H4 (Low Grade Glioma) = tested on: H4 (Low Grade Glioma)
# In short: as §1
# [3] = tested on: D-283MED (Other Solid Carcinomas)
# In short: as §1
# [4] = tested on: TC-YIK (Other Solid Carcinomas)
# In short: as §1
# [5] = tested on: SK-UT-1 (Other Solid Carcinomas)
# In short: as §1
# [6] = tested on: SNG-M (Endometrial Carcinoma)
# In short: as §1
# [7] = tested on: HCT-116 (Colorectal Carcinoma)
# In short: as §1
# [8] = tested on: SK-LMS-1 (Other Solid Carcinomas)
# In short: as §1
# [9] = tested on: HLE (Hepatocellular Carcinoma)
# In short: as §1
# [10] = tested on: SW948 (Colorectal Carcinoma)
# In short: as §1
# [11] = tested on: BICR78 (Oral Cavity Carcinoma)
# In short: as §1
# [12] = tested on: WSU-DLCL2 (B-Cell Non-Hodgkin's Lymphoma)
# In short: as §1
# Saos-2 (Osteosarcoma) = tested on: Saos-2 (Osteosarcoma)
# In short: as §1
# CS1 (Chondrosarcoma) = tested on: CS1 (Chondrosarcoma)
# In short: as §1
# EW-22 (Ewing's Sarcoma) = tested on: EW-22 (Ewing's Sarcoma)
# In short: as §1
# SK-MEL-1 (Melanoma) = tested on: SK-MEL-1 (Melanoma)
# In short: as §1
# MSTO-211H (Mesothelioma) = tested on: MSTO-211H (Mesothelioma)
# In short: as §1
SMILES,combination Emax [1],combination Emax (HCC38 (Breast Carcinoma)),combination Emax (D-392MG (Glioblastoma)),combination Emax [2],combination Emax (H4 (Low Grade Glioma)),combination Emax [3],combination Emax [4],combination Emax [5],combination Emax [6],combination Emax [7],combination Emax [8],combination Emax [9],combination Emax [10],combination Emax [11],combination Emax [12],combination Emax (Saos-2 (Osteosarcoma)),combination Emax (CS1 (Chondrosarcoma)),combination Emax (EW-22 (Ewing's Sarcoma)),combination Emax (SK-MEL-1 (Melanoma)),combination Emax (MSTO-211H (Mesothelioma))
"C[C@@H]1COCCN1c1cc(C2([S@](C)(=N)=O)CC2)nc(-c2ccnc3[nH]ccc23)n1 [AZD6738] + Nc1ccn([C@@H]2O[C@H](CO)[C@@H](O)C2(F)F)c(=O)n1 [Gemcitabine] (first compound max 10 µM, 7x7, partner max 0.3 µM)",0.955,0.744,0.625,0.945,0.957,1,0.893,0.979,0.934,0.947,0.858,0.834,0.873,0.79,1,0.83,0.734,0.949,0.528,0.855
"N#Cc1cnc(Nc2cc(NC[C@H]3CNCCO3)c(C(F)(F)F)cn2)cn1 [SRA737] + C=CCn1c(=O)c2cnc(Nc3ccc(N4CCN(C)CC4)cc3)nc2n1-c1cccc(C(C)(C)O)n1 [AZD1775] (first compound max 10 µM, partner max 1 µM)",0.935,0.576,0.518,0.935,0.792,1,0.858,0.843,0.883,0.758,0.649,0.485,0.807,0.561,1,0.811,0.596,0.873,0.277,0.726
"C=CCn1c(=O)c2cnc(Nc3ccc(N4CCN(C)CC4)cc3)nc2n1-c1cccc(C(C)(C)O)n1 [AZD1775] + CCc1c2c(nc3ccc(O)cc13)-c1cc3c(c(=O)n1C2)COC(=O)[C@]3(O)CC [SN-38] (first compound max 1 µM, partner max 0.3 µM)",0.967,0.751,0.569,0.964,0.908,0.996,1,0.982,0.77,0.866,0.898,0.791,0.862,0.854,1,0.964,0.786,0.94,0.56,0.783
"C[C@@H](Oc1cc(-c2cnn(C3CCNCC3)c2)cnc1N)c1c(Cl)ccc(F)c1Cl [Crizotinib] + CC1=C(C(=CC=C1)Cl)NC(=O)C2=CN=C(S2)NC3=CC(=NC(=N3)C)N4CCN(CC4)CCO [Dasatinib] (first compound max 10 µM, 7x7, partner max 2 µM)",0.761,0.348,0.921,1,0.963,0.979,0.796,0.454,0.973,0.95,0.949,0.404,0.793,0.829,0.751,0.986,0.836,0.766,0.916,0.674
"O=C(c1cc(Cc2n[nH]c(=O)c3ccccc23)ccc1F)N1CCN(C(=O)C2CC2)CC1 [Olaparib] + CN(CC[C@H](CSC1=CC=CC=C1)NC2=C(C=C(C=C2)S(=O)(=O)NC(=O)C3=CC=C(C=C3)N4CCC(CC4)[C@H](C5=CC=CC=C5C6=CC=C(C=C6)Cl)O)S(=O)(=O)C(F)(F)F)CCO [AZD4320] (first compound max 10 µM, 7x7, partner max 1 µM)",0.982,0.482,0.321,0.505,0.389,0.914,0.984,0.466,0.401,0.509,0.494,0.274,0.303,0.0831,0.876,0.326,0.431,0.988,0.42,0.456
"O=C(c1cc(Cc2n[nH]c(=O)c3ccccc23)ccc1F)N1CCN(C(=O)C2CC2)CC1 [Olaparib] + Cc1c2c(nn1C)CSCc1cc(n(C)n1)CSc1cc(c3ccccc3c1)OCCCc1c(C(=O)O)n(C)c3c-2c(Cl)ccc13 [AZD5991] (first compound max 10 µM, 7x7, partner max 1 µM)",0.362,0.156,0.142,0.116,0.393,0.9,0.449,0.109,0.234,0.37,0.165,0.157,0.158,0.0524,0.996,0.384,0.0992,0.93,0.127,0.0433
